Measurements reported in US7560529B2, “Method for producing catalytic antibodies (variants), antigens for immunization and nucleotide sequence” (FDS Pharma, priority 2001, dated 2009).

System: CD4+ T-lymphocytes from SJL mice
Assay: Flow cytometry of surface marker expression in T-lymphocytes of immunized SJL mice
Format: in vivo
Text: To characterize the features of immune response development upon immunization with a fusion protein comprising the neuroantigen MBP, a comparative analysis of specific surface markers expression in T-lymphocytes from SJL mice that were not immunized (control), from mice immunized with the synthetic peptide MBP89-104, recombinant fusion protein gp120I-IIImbp (the product of Construct No. 15 (see FIG. 3) at two different doses and recombinant protein gp120I-III (the product of Construct No. 13 (see FIG. 3) was carried out (FIG. 11). All the immunizations were performed in parallel under identical conditions as described above. Twenty one days after the beginning of an experiment, CD4+ T-lymphocytes isolated from two mice of each group were analyzed by flow cytometry. A specific feature of SJL mice was initially low CD8+ T-cell counts.

## VVHFFKNIVTPRTPPPS [peptide MBP, encephalitogenic 89-104 peptide of the myelin basic protein, reference compound]
  T-cell immune response by day 21 after immunization (surface markers CD11a, CD44, CD45RB, CD62-L): fully developed T-cell immune response
